Measurements: paper PMC6572338 (2019)

Key:
[1] = test system: C-mycG4 (Pu-27); C-myc G4 (DNA, G4) TGGGGAGGGTGGGGAGGGTGGGGAAGG; assay: PCR-stop assay; conditions: 50 mM KCl; Platinum Supermix, 0.5 uM each oligonucleotide, Pu27rev primer; dose-dependent reduction of product
[2] = test system: Pu27rev (DNA, single strand) ATCGATCGCTTCTTCGTCCTTCCCCA; assay: SPR (Biacore 3000); conditions: 200 mM KCl, 5 mM MgCl2; 20 mM HEPES pH 7.5, 1% DMSO, 0.005% P-20; immobilised compound; NB, oligonucleotide up to 10 uM
[3] = test system: C-mycG4 (Pu-27); C-myc G4 (DNA, G4) TGGGGAGGGTGGGGAGGGTGGGGAAGG; assay: SPR (Biacore 3000), 1:1 Langmuir kinetics; conditions: 200 mM KCl, 5 mM MgCl2, 20 mM HEPES pH 7.5, 1% DMSO, 0.005% P-20, immobilised compound
[4] = test system: c-myc_G4_1234; Pu21_1234 (DNA, G4) TGGGGAGGGTGGGGAGGGTGG; assay: SPR (Biacore 3000), 1:1 Langmuir kinetics; conditions: 200 mM KCl, 5 mM MgCl2, 20 mM HEPES pH 7.5, 1% DMSO, 0.005% P-20, immobilised compound
[5] = test system: c-myc_G4_2345; Pu21_2345 (DNA, G4) GAGGGTGGGGAGGGTGGGGAA; assay: SPR (Biacore 3000), 1:1 Langmuir kinetics; conditions: 200 mM KCl, 5 mM MgCl2, 20 mM HEPES pH 7.5, 1% DMSO, 0.005% P-20, immobilised compound
[6] = test system: C-kit1; C-kit1 G4 (DNA, G4) AGGGAGGGCGCTGGGAGGAGGG; assay: SPR (Biacore 3000), 1:1 Langmuir kinetics; conditions: 200 mM KCl, 5 mM MgCl2; 20 mM HEPES pH 7.5, 1% DMSO, 0.005% P-20; immobilised compound
[7] = test system: C-kit2; C-kit2 G4 (DNA, G4) GGGCGGGCGCGAGGGAGGGG; assay: SPR (Biacore 3000), 1:1 Langmuir kinetics; conditions: 200 mM KCl, 5 mM MgCl2; 20 mM HEPES pH 7.5, 1% DMSO, 0.005% P-20; immobilised compound

binding [1] | binding [2] | KD [3] [µM] | KD [4] [µM] | KD ([5]; text prints 190 nM) [µM] | KD [6] [µM] | KD [7] [µM] | KD ([3]; text prints 1.06 µM) [µM] | KD ([4]; text prints 328 nM) [µM] | KD [5] [µM] | Compound
yes | – | – | – | – | – | – | – | – | – | Cc1cnccc1N1CCN(c2nccc3c2nc(-c2c[nH]c4ccncc24)n3CCOCCOCCN)CC1
– | no | 0.328 | 0.059 | 0.197 | 0.807 | 1.4 | – | – | – | Cc1cnccc1N1CCN(c2nccc3c2nc(-c2c[nH]c4ccncc24)n3CCOCCOCCNC(=O)CCCC[C@@H]2SC[C@@H]3NC(=O)N[C@@H]32)CC1
yes | – | – | – | – | – | – | – | – | – | Cn1cccc1CN(CC(=O)NCCOCCOCCN)Cc1ccc(OCC(=O)NCc2nc3ccccc3c(=O)[nH]2)c(Cl)c1
– | no | – | – | – | 1.1 | 1.7 | 1.05 | 0.338 | 0.308 | Cn1cccc1CN(CC(=O)NCCOCCOCCNC(=O)CCCC[C@@H]1SC[C@@H]2NC(=O)N[C@@H]21)Cc1ccc(OCC(=O)NCc2nc3ccccc3c(=O)[nH]2)c(Cl)c1
